Experimental findings from PubChem BioAssay (NCI) are described below.

Common to all, as to test: growth of human tumour cells (NCI), 48 h
The test system of assay [1] is SNB-19 CNS.
Assay [2] has as its system SF-539 CNS.
In assay [3] the test system is MDA-N.
Assay [4] relates to NCI-H522 lung.
The test system of assay [5] is HCT-15 colon.
Assay [6] relates to HL-60(TB) leukemia.
Assay [7] deals with IGROV1 ovarian.
The test system of assay [8] is SNB-75 CNS.
In assay [9] the test system is KM12 colon.
Assay [10] relates to ACHN renal.
In assay [11] the test system is SK-MEL-28 melanoma.
Assay [12] concerns SK-OV-3 ovarian.

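Cells were grown in 96-well plates and exposed to each compound for 48 hours at five concentrations; endpoints were interpolated linearly between bracketing concentrations, or set to the highest concentration if not reached. At the TGI there is no net growth.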

In the case of `O=C(/C=C/c1ccc(O)c(O)c1)OCCc1cccc2ccccc12`, the TGI in [1] was 28.4 µM; in assay [2], 18.2 µM; in assay [3], 5.26 µM; in assay [4], 4.17 µM; in assay [5] it was 9.64 µM; in assay [6], 3.52 µM. For the same molecule, the TGI in [7] is 14.5 µM; in assay [8], 9.57 µM; in assay [9], 23.4 µM; in assay [10], 13.4 µM; in assay [11] it was 16.9 µM.

Take `N#CCC(=O)Nn1c(CC#N)nnc1Cc1ccccc1`: the TGI in assay [1], in [2], in assay [3], in [4], in assay [5] and in assay [6] was > 100 µM throughout. In addition, the TGI in assay [7], in assay [8], in assay [9], in assay [10] and in [11] was > 100 µM in each case.

In the case of `O=C(c1cc(Cl)cc(Cl)c1)N(C(=S)OC12CC3CC(CC(C3)C1)C2)c1ccccc1`, the TGI was > 100 µM in assay [1]; > 100 µM in assay [2]; > 100 µM in [3]; 62.3 µM in [4]; > 100 µM in assay [5]; 84.5 µM in assay [6]. The TGI in [12], in [8], in [9], in assay [10] and in assay [11] was > 100 µM each time.

Turning to `O=P(O)(O)C(O)/C=C/c1ccccc1` (stereo unspecified), the TGI in assay [1], in assay [3], in assay [4], in [5], in [6] and in assay [12] was > 100 µM each time. The TGI in assay [7], in [8], in [9], in assay [10] and in [11] was > 100 µM each time.

On to `O=C1c2cc3ccccc3cc2C2(c3ccc(Cl)cc3)N[C@H]3CCCC[C@@H]3N12` (stereo partly specified), for which the TGI in assay [1] is 27.9 µM; in [2], 21.8 µM; in [3] it was 57.8 µM; in assay [5], > 100 µM; in assay [6], 55.6 µM; in [12] it was 31.9 µM. For the same molecule, the TGI stood at 30.6 µM in assay [7]; 37.5 µM in assay [8]; 48.2 µM in [9]; 38.7 µM in [10]; 28.1 µM in assay [11].

Regarding `COP(C)(=O)/C(Cc1ccccc1)=N\O` (stereo unspecified), the TGI in assay [1], in [3], in assay [5], in assay [6], in assay [12] and in assay [7] was > 100 µM each time. The TGI in assay [8], in assay [10] and in [11] was > 100 µM in each case.

Turning to `CC[N+]1(C)CCC(O)(c2ccc(Cl)cc2)C(C(=O)c2ccc(Cl)cc2)C1` (stereo unspecified), the TGI in [1] is 31.8 µM; in [3], 41.3 µM; in [4], 3.51 µM; in [5] it was 41.3 µM; in assay [6] it was > 100 µM; in [12] it was 27.7 µM. For the same molecule, the TGI was determined as 47.9 µM in assay [7], 31.7 µM in [9], 33.5 µM in assay [10] and 29.4 µM in [11].

In the case of `O=C1c2ccccc2CC12Cc1cc3c(cc1C2=O)CCC3` (stereo unspecified), the TGI in assay [1], in [2], in [3], in assay [4], in assay [5] and in [6] was > 100 µM in each case. Also, the TGI in assay [12], in assay [7], in assay [8], in assay [10] and in assay [11] was > 100 µM throughout.

Turning to `N#Cc1[nH]c(=O)n(-c2ccc(Cl)cc2)c1N`, the TGI in [1], in [2], in assay [3], in assay [4], in [5] and in assay [6] was > 10 µM in each case. Also, the TGI in assay [12], in [7], in assay [9], in assay [10] and in [11] was > 10 µM in each case.

As for `CC(NS(C)(=O)=O)c1ccccc1` (stereo unspecified), the TGI in assay [1], in assay [2], in assay [3], in assay [4], in assay [5] and in assay [6] was > 100 µM throughout. Further, the TGI in assay [7], in assay [8], in assay [9] and in [11] was > 100 µM throughout.

For the molecule `CC1(c2ccc(Cl)cc2)CC(c2ccc(Cl)cc2)=C(C#N)C(=C(C#N)C#N)N1` (stereo unspecified), the TGI stood at 39.6 µM in assay [1]; 40.7 µM in [2]; 38.5 µM in assay [3]; 32.5 µM in assay [5]; 78.6 µM in assay [6]; 31.2 µM in [12]. Further, the TGI in assay [7] was 28.8 µM; in assay [8], 34.7 µM; in [9], 40.3 µM; in [10], 28 µM; in [11], > 100 µM.

With `CCCNC(=S)N/N=C/c1cccc(C)n1`, the TGI was 62.9 µM in [2]; > 100 µM in assay [3]; 37 µM in assay [4]; > 100 µM in assay [5]; 50.8 µM in [6]; > 100 µM in assay [12]. The TGI in [7] was > 100 µM; in assay [9], > 100 µM; in assay [10], 44.7 µM.

Take `O=c1[nH]c2ccc(CC(=S)N3CCOCC3)cc2s1`: the TGI in [1], in assay [2], in [3], in [5], in assay [6] and in assay [12] was > 100 µM in each case. Also, the TGI in [7], in [9], in assay [10] and in assay [11] was > 100 µM each time.
